Patent US8138194B2, “Fused bicyclic pyrimidine compounds as aurora kinase inhibitors” (National Health Research Institutes, priority 2008, dated 2012)
“And” between values parts separate entries of the source, which are not always exact repeats. Equal values may be shown once. Read-outs that look alike come from different tables or passages of the source.

What was measured:
HCT-116 cells = assay: HCT-116 cell viability MTS assay; format: cell-based; settings: Homo sapiens
Procedure: HCT-116 cell viability was examined by the MTS assay (Promega, Madison, Wis., USA). 2000 HCT-116 cells in 100 μL McCoy's 5a medium were seeded in each well of a 96-well plate. After 96-h incubation with a test compound, the cells were incubated with 20 μL of a MTS/PMS mixture (MTS/PMS ratio: 20: 1) for 2 h at 37° C. in a humidified incubator with 5% CO2 to allow viable cells to convert the tetrazolium salt (MTS) into formazan. The amount/concentration of formazan, which indicates the number of live cells, was determined by measuring the absorbance at 490 nm using a PerkinElmer Victor2 plate reader (PerkinElmer, Shelton, Cont., USA).

[1] = biological target: T1, GST-tAurora A (123-401aa) fusion protein (Homo sapiens, UniProt O14965); assay: Aurora Kinase A luminescent kinase assay; format: biochemical; settings: IC50 (concentration of a test compound at which activity of 50% of Aurora A is inhibited)
T1 construct: GST-tAurora A (123-401aa) fusion protein; made in house; host or cells: Sf9 insect cells (baculovirus, pBacPAK8)
T1 sequence (O14965 123-401): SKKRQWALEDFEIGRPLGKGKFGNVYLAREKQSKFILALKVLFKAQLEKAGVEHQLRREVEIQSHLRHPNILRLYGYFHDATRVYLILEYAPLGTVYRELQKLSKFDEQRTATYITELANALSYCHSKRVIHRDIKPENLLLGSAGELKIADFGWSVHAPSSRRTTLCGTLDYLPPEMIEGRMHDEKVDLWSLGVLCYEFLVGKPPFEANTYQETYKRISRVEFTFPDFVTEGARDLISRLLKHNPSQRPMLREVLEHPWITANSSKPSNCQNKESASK
Procedure: The Aurora A catalytic domain with an N-terminal GST tag was constructed in pBacPAK8 plasmid and expressed in sf9 cells. […] To concentrate GST-tAurora A, buffer was replaced with Tris buffer (100 mM Tris (pH 7.5), 300 mM NaCl, 1 mM EDTA, 4 mM DTT) using Amicon ultra-15 (MWCO:30K, Millipore) to 2.4 mg/ml. After the addition of equal volume of glycerol and 0.04% Triton X-100, the proteins were stored aliquoted at −80° C.
Briefly, a test compound, enzyme, substrate-tetra(LRRWSLG), DTT and ATP were dissolved in Aur buffer (50 mM Tris-HCl pH 7.4, 10 mM NaCl, 10 mM MgCl2, and 100 μg/ml BSA) individually before the assay. […] 5 μM ATP (5 μl), 1 mM DTT (5 μl) and 0.1 mM tetra(LRRWSLG) peptide substrate (5 μl) were added into the reactions of test compounds and GST-tAurora A. The reactions were incubated at 37° C. for 90 min. 50 μl of Kinase-Glo Plus Reagent (V3771, Promega) was added into the reactions, followed by the incubation at 25° C. for 20 min.

[2] = read-out: IC50 (concentration of a test compound which causes 50% of the cell death), HCT-116, 96-h incubation, MTS

Compound	IC50 (HCT-116 cells; [2])	IC50 [1]	IC50 (HCT-116 cells; HCT-116, 96 h, read-out: IC50 (concentration of a test compound which causes 50% of the cell death), HCT-116, 96-h incubation, MTS)	IC50 (HCT-116 cells; HCT-116, 96 h, read-out: IC50 (concentration of a test compound which causes 50% of the cell death))
O=C(Nc1ccccc1)Nc1ccc(CCNc2ncnc3oc(-c4ccccc4)c(-c4ccccc4)c23)cc1 [Compound 6, 1-(4-(2-(5,6-diphenylfuro[2,3-d]pyrimidin-4-ylamino)ethyl)phenyl)-3-phenylurea]	100 to 900 nM	–	–	–
O=C(Nc1ccc(CCNc2ncnc3oc(-c4ccccc4)c(-c4ccccc4)c23)cc1)Nc1cccc(F)c1 [Compound 14]	100 to 900 nM	45 to 400 nM and < 1000 nM	–	–
COc1ccc(-c2oc3ncnc(NCCc4ccc(NC(=O)Nc5ccccc5)cc4)c3c2-c2ccc(OC)cc2)cc1 [Compound 23]	100 to 900 nM	45 to 400 nM and < 1000 nM	–	–
O=C(Nc1ccccc1)Nc1ccc(CCNc2ncnc3oc(-c4ccc(O)cc4)c(-c4ccc(O)cc4)c23)cc1 [Compound 24]	100 to 900 nM	< 1000 nM	–	–
O=C(Nc1ccccc1)Nc1ccc(CCNc2ncnc3sc4c(c23)CCCC4)cc1 [Compound 42, N-phenyl-N′-4-[2-(5,6,7,8-tetrahydrobenzo[4,5]thieno[2,3-d]pyrimidin-4-ylamino)ethyl]phenylurea]	100 to 900 nM	45 to 400 nM and < 1000 nM	–	–
O=C(Nc1ccccc1)Nc1ccc(CCNc2ncnc3oc(-c4ccccc4)c(Br)c23)cc1 [Compound 57]	100 to 900 nM	45 to 400 nM and < 1000 nM	–	–
CC(=O)Nc1ccc(-c2c(-c3ccccc3)oc3ncnc(NCCc4ccc(NC(=O)Nc5ccccc5)cc4)c23)cc1 [Compound 58]	100 to 900 nM	< 1000 nM	–	–
O=C(Nc1ccccc1)Nc1ccc(CCNc2ncnc3oc(-c4ccccc4)c(-c4ccc(O)cc4)c23)cc1 [Compound 60]	100 to 900 nM	< 1000 nM	–	–
O=C(Nc1ccc(F)cc1)Nc1ccc(CCNc2ncnc3oc(-c4ccccc4)c(-c4ccccc4)c23)cc1 [Compound 61]	100 to 900 nM	45 to 400 nM and < 1000 nM	–	–
O=C(Nc1ccccc1)Nc1ccc(CCNc2ncnc3oc(-c4ccccc4)cc23)cc1 [Compound 79]	100 to 900 nM	45 to 400 nM and < 1000 nM	–	–
CC(=O)Nc1cccc(-c2c(-c3ccccc3)oc3ncnc(NCCc4ccc(NC(=O)Nc5ccccc5)cc4)c23)c1 [Compound 80]	100 to 900 nM	45 to 400 nM and < 1000 nM	–	–
O=C(Nc1ccc(CCNc2ncnc3oc(-c4ccccc4)c(-c4ccccc4)c23)cc1)Nc1ccc(F)cc1F [Compound 92]	100 to 900 nM	< 1000 nM	–	–
O=C(Nc1ccc(Cl)cc1)Nc1ccc(CCNc2ncnc3oc(-c4ccccc4)c(-c4ccccc4)c23)cc1 [Compound 93]	100 to 900 nM	< 1000 nM	–	–
O=C(Nc1ccc(CCNc2ncnc3oc(-c4ccccc4)c(-c4ccccc4)c23)cc1)Nc1ccccc1F [Compound 96]	100 to 900 nM	45 to 400 nM and < 1000 nM	–	–
CN(C)Cc1ccc(NC(=O)Nc2ccc(CCNc3ncnc4oc(-c5ccccc5)c(-c5ccccc5)c34)cc2)cc1 [Compound 115]	100 to 900 nM	< 1000 nM	–	–
CN(C)Cc1ccccc1NC(=O)Nc1ccc(CCNc2ncnc3oc(-c4ccccc4)c(-c4ccccc4)c23)cc1 [Compound 123]	100 to 900 nM	45 to 400 nM and < 1000 nM	–	–
O=C(Nc1ccc(CCNc2ncnc3oc(-c4ccccc4)c(-c4ccccc4)c23)cc1)Nc1cccnc1 [Compound 147]	100 to 900 nM	45 to 400 nM and < 1000 nM	–	–
O=C(Nc1ccncc1)Nc1ccc(CCNc2ncnc3oc(-c4ccccc4)c(-c4ccccc4)c23)cc1 [Compound 148]	100 to 900 nM	< 1000 nM	–	–
O=C(Nc1ccc(CCNc2ncnc3oc(-c4ccccc4)c(-c4ccccc4)c23)cc1)Nc1cnccn1 [Compound 151]	–	< 1000 nM	–	–
Cc1cc(NC(=O)Nc2ccc(CCNc3ncnc4oc(-c5ccccc5)c(-c5ccccc5)c34)cc2)no1 [Compound 160]	–	< 1000 nM	–	–
Cc1cc(NC(=O)Nc2ccc(CCNc3ncnc4oc(-c5ccccc5)c(-c5ccccc5)c34)cc2)on1 [Compound 161]	–	< 1000 nM and 45 to 400 nM	–	–
Cc1csc(NC(=O)Nc2ccc(CCNc3ncnc4oc(-c5ccccc5)c(-c5ccccc5)c34)cc2)n1 [Compound 163]	–	< 1000 nM and 45 to 400 nM	–	–
Cc1cnc(NC(=O)Nc2ccc(CCNc3ncnc4oc(-c5ccccc5)c(-c5ccccc5)c34)cc2)s1 [Compound 164]	–	< 1000 nM	–	–
O=C(Nc1ccccc1)Nc1ncc(CCNc2ncnc3oc(-c4ccccc4)c(-c4ccccc4)c23)s1 [Compound 171]	100 to 900 nM	45 to 400 nM and < 1000 nM	–	–
O=C(Nc1ccccc1)Nc1ccc(CCNc2ncnc3[nH]c(-c4ccccc4)c(-c4ccccc4)c23)cc1 [Compound 172]	100 to 900 nM	45 to 400 nM and < 1000 nM	–	–
O=C(Nc1ccccc1)Nc1ccc(CCNc2ncnc3oc4c(c23)CCCC4)cc1 [Compound 173]	–	< 1000 nM	–	–

Compound	IC50 (HCT-116 cells; [2])	IC50 [1]	IC50 (HCT-116 cells; HCT-116, 96 h, read-out: IC50 (concentration of a test compound which causes 50% of the cell death), HCT-116, 96-h incubation, MTS)	IC50 (HCT-116 cells; HCT-116, 96 h, read-out: IC50 (concentration of a test compound which causes 50% of the cell death))
O=C(Nc1ccccc1)Nc1ccc(CCNc2ncnc3cc(-c4ccccc4)oc23)cc1 [Compound 176]	100 to 900 nM	< 1000 nM	–	–
O=C(Nc1ccccc1)Nc1ccc(CCNc2ncnc3sc4c(c23)CCC4)cc1 [Compound 196]	100 to 900 nM	45 to 400 nM and < 1000 nM	–	–
O=C(Nc1ccc(CCNc2ncnc3oc(-c4ccccc4)c(-c4ccccc4)c23)cc1)Nc1ccccc1Br [Compound 197]	–	< 1000 nM	–	–
CN(C)CCNC(=O)Nc1ccc(CCNc2ncnc3oc(-c4ccccc4)c(-c4ccccc4)c23)cc1 [Compound 198]	–	45 to 400 nM and < 1000 nM	–	–
O=C(NCCO)Nc1ccc(CCNc2ncnc3oc(-c4ccccc4)c(-c4ccccc4)c23)cc1 [Compound 199]	–	45 to 400 nM and < 1000 nM	–	–
CCOC(=O)CNC(=O)Nc1ccc(CCNc2ncnc3oc(-c4ccccc4)c(-c4ccccc4)c23)cc1 [Compound 200]	–	< 1000 nM	–	–
O=C(Nc1ccc(CCNc2ncnc3oc(-c4ccccc4)c(-c4ccccc4)c23)cc1)NC1CC1 [Compound 201]	–	< 1000 nM and 45 to 400 nM	–	–
O=C(Nc1ccccc1)Nc1ccc(CCNc2ncnc3oc(-c4ccccc4)c(C#CCO)c23)cc1 [Compound 202]	100 to 900 nM	< 1000 nM and 45 to 400 nM	–	–
O=C(Nc1ccccc1)Nc1ccc(CCNc2ncnc3occ(-c4ccccc4)c23)cc1 [Compound 203]	–	< 1000 nM and 45 to 400 nM	–	–
COc1ccc(-c2cc3c(NCCc4ccc(NC(=O)Nc5ccccc5)cc4)ncnc3o2)cc1 [Compound 204]	100 to 900 nM	< 1000 nM and 45 to 400 nM	–	–
O=C(Nc1ccccc1)Nc1ccc(CCNc2ncnc3oc(-c4ccc(O)cc4)cc23)cc1 [Compound 205]	< 100 nM	< 1000 nM and 45 to 400 nM	–	–
CN(C)CCOc1ccc(-c2cc3c(NCCc4ccc(NC(=O)Nc5ccccc5)cc4)ncnc3o2)cc1 [Compound 207]	–	–	100 to 900 nM	–
CCOC(=O)N1CCc2c(sc3ncnc(NCCc4ccc(NC(=O)Nc5ccccc5)cc4)c23)C1 [Compound 208]	–	< 1000 nM and 45 to 400 nM	–	–
CN(C)Cc1ccccc1NC(=O)Nc1ccc(CCNc2ncnc3oc(-c4ccccc4)cc23)cc1 [Compound 211]	100 to 900 nM	< 1000 nM and 45 to 400 nM	–	–
O=C(Nc1ccccc1)Nc1ccc(CCNc2ncnc3oc(Cl)c(-c4ccccc4)c23)cc1 [Compound 213]	100 to 900 nM	< 1000 nM	–	–
O=C(Nc1ccc(CCNc2ncnc3oc(-c4ccccc4)c(-c4ccccc4)c23)cc1)NC1CCC1 [Compound 214]	100 to 900 nM	45 to 400 nM and < 1000 nM	–	–
O=C(NCCCl)Nc1ccc(CCNc2ncnc3oc(-c4ccccc4)cc23)cc1 [Compound 215]	–	< 1000 nM	–	100 to 900 nM
O=C(NCCCCl)Nc1ccc(CCNc2ncnc3oc(-c4ccccc4)c(-c4ccccc4)c23)cc1 [Compound 227]	–	< 1000 nM	–	–
O=C(Nc1ccc(CCNc2ncnc3oc(-c4ccccc4)c(Cl)c23)cc1)c1ccccc1 [Compound 228]	–	< 1000 nM	–	–
O=C(Nc1ccc(CCNc2ncnc3oc(-c4ccccc4)cc23)cc1)c1ccccc1 [Compound 229]	–	< 1000 nM	–	–
O=C(Nc1ccc(CCNc2ncnc3oc(-c4ccccc4)cc23)cc1)Nc1cccnc1 [Compound 231]	–	< 1000 nM	–	–
CN(C)CCNC(=O)Nc1ccc(CCNc2ncnc3oc(-c4ccccc4)cc23)cc1 [Compound 233]	–	< 1000 nM	–	–
CN(C)CCNC(=O)Nc1ccc(CCNc2ncnc3oc(-c4ccccc4)c(Cl)c23)cc1 [Compound 234]	–	< 1000 nM	–	–
Cc1cc(NC(=O)Nc2ccc(CCNc3ncnc4oc(-c5ccccc5)c(-c5ccccc5)c34)cc2)n[nH]1 [Compound 238]	–	< 1000 nM	–	–
CC(C)(C)OC(=O)N1CCN(CCCOc2ccc(-c3cc4c(NCCc5ccc(NC(=O)Nc6ccccc6)cc5)ncnc4o3)cc2)CC1 [Compound 242]	–	< 1000 nM and 45 to 400 nM	–	–
